Data taken from US20260306640A1, “TECHNOLOGIES TARGETING CELL STATES” (Auron Therapeutics, Inc., priority 2023, published 2026).

Experiments:
KAT2B = KAT2B (Homo sapiens, UniProt Q92831); test: KAT2B degradation, Western Blot (Jess), NCI-H1048 cells; format: cell-based; parameters: degrader, Western blot (Jess); conditions: NCI-H1048 cells, KAT2B, 24 h, Western Blot, vs DMSO; read-out: KAT2B NCI-H1048 DC50
Outline: (§1)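 DC50 came from protein loss relative to DMSO, measured by Jess capillary immunoblot of RIPA lysates with chemiluminescence read-out. Before lysis, NCI-H1048 cells in 5% FBS HITES medium were exposed to compound for 24 h at 37° C.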

KAT2A = KAT2A (Homo sapiens, UniProt Q92830); test: KAT2A degradation, Western Blot (Jess), NCI-H1048 cells; format: cell-based; parameters: degrader, Western blot (Jess); conditions: NCI-H1048 cells, KAT2A, 24 h, Western Blot, vs DMSO; read-out: KAT2A NCI-H1048 DC50
Chain of KAT2A (Q92830 whole entry): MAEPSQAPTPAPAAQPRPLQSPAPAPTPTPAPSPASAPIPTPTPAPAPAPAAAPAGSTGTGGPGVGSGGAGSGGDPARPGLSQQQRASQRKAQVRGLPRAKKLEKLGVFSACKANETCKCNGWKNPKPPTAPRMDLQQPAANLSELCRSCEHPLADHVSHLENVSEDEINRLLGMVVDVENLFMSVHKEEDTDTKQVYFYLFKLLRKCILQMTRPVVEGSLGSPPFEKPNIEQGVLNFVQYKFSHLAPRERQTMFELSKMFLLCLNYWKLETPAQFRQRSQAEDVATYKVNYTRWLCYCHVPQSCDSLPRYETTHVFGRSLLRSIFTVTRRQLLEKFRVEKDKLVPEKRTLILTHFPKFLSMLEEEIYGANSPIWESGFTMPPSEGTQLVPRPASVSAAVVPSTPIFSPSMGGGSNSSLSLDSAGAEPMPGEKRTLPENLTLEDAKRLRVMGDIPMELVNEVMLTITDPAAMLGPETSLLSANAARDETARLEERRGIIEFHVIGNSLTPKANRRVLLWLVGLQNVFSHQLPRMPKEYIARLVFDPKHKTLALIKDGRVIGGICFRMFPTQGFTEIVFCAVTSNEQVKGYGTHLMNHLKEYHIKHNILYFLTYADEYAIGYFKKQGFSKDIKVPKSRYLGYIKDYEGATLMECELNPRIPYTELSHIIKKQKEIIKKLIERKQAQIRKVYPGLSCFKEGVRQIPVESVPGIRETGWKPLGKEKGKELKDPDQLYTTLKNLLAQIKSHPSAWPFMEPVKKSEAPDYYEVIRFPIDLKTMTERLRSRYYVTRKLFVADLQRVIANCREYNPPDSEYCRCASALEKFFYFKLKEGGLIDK
Outline: as §1

Chain of KAT2B (Q92831 whole entry): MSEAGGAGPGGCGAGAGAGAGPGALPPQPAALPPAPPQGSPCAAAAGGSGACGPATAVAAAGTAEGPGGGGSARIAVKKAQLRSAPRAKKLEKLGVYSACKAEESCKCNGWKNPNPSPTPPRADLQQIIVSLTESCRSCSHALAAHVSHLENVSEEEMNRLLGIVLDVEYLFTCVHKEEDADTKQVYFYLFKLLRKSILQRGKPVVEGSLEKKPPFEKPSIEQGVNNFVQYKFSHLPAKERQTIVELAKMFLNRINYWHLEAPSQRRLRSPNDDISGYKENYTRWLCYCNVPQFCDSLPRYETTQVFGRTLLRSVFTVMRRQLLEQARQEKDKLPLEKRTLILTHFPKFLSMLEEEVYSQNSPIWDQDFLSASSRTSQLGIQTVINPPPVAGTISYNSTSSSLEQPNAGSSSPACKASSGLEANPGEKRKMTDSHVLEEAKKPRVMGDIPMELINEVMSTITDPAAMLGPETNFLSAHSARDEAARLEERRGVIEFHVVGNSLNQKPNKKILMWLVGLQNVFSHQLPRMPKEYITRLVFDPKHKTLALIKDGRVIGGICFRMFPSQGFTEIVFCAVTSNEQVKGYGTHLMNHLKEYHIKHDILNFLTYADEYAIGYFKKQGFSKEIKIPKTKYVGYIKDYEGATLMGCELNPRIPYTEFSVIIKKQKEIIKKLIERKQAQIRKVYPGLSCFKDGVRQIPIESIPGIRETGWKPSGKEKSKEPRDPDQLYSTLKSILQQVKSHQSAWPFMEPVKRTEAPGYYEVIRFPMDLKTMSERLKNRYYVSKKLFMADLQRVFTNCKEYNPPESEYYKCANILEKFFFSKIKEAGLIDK

Structure (SMILES) | DC50 (KAT2B) | DC50 (KAT2A)
Cc1c(N[C@@H]2C[C@H](c3ccc(CN4CCN(c5ccnc(C6CCC(=O)NC6=O)c5)CC4)cc3)CN(C)C2)cnn(C)c1=O (stereo partly shown) [Compound 352] | > 30 nM | 1 to 30 nM
CN1C[C@H](Nc2cnn(C)c(=O)c2Br)C[C@H](c2ccc(CN3C4CC3CN(c3cccc(C5CCC(=O)NC5=O)c3)C4)cc2)C1 (stereo partly shown) [Compound 353] | > 30 nM | < 1 nM
CN1C[C@H](Nc2cnn(C)c(=O)c2Cl)C[C@H](c2ccc(CN3C4CC3CN(c3cccc(C5CCC(=O)NC5=O)c3)C4)cc2)C1 (stereo partly shown) [Compound 354] | > 30 nM | 1 to 30 nM
CN1C[C@H](Nc2cnn(C)c(=O)c2Br)C[C@H](c2ccc(CN3CCN(c4cc(C5CCC(=O)NC5=O)ccn4)CC3)cc2)C1 (stereo partly shown) [Compound 355] | > 30 nM | 1 to 30 nM
CN1C[C@H](Nc2cnn(C)c(=O)c2Cl)C[C@H](c2ccc(CN3CCN(c4cc(C5CCC(=O)NC5=O)ccn4)CC3)cc2)C1 (stereo partly shown) [Compound 356] | > 30 nM | 1 to 30 nM
Cc1c(N[C@@H]2C[C@H](c3ccc(CN4CCN(c5cc(C6CCC(=O)NC6=O)ccn5)CC4)cc3)CN(C)C2)cnn(C)c1=O (stereo partly shown) [Compound 357] | > 30 nM | 1 to 30 nM
CN1C[C@H](Nc2cnn(C)c(=O)c2Br)C[C@H](c2ccc(CN3CCN(c4cc(C5CCC(=O)NC5=O)c(F)cc4F)CC3)cc2)C1 (stereo partly shown) [Compound 358] | > 30 nM | > 30 nM
CN1C[C@H](Nc2cnn(C)c(=O)c2Cl)C[C@H](c2ccc(CN3CCN(c4cc(C5CCC(=O)NC5=O)c(F)cc4F)CC3)cc2)C1 (stereo partly shown) [Compound 359] | > 30 nM | > 30 nM
Cc1c(N[C@@H]2C[C@H](c3ccc(CN4CCN(c5cc(C6CCC(=O)NC6=O)c(F)cc5F)CC4)cc3)CN(C)C2)cnn(C)c1=O (stereo partly shown) [Compound 360] | > 30 nM | > 30 nM
CN1C[C@H](Nc2cnn(C)c(=O)c2Cl)C[C@H](c2ccc(CN3CCN(c4cccc(C5CCC(=O)NC5=O)c4)CC3)cc2)C1 (stereo partly shown) [Compound 361] | 1 to 30 nM | < 1 nM
Cc1cc(N2CCC3(CCN(C(=O)c4ccc([C@H]5C[C@@H](Nc6cnn(C)c(=O)c6Br)CN(C)C5)cc4)CC3)CC2)ccc1OC1CCC(=O)NC1=O (stereo partly shown) [Compound 364] | > 30 nM | < 1 nM
Cc1cc(N2CCC3(CCN(C(=O)c4ccc([C@H]5C[C@@H](Nc6cnn(C)c(=O)c6Cl)CN(C)C5)cc4)CC3)CC2)ccc1OC1CCC(=O)NC1=O (stereo partly shown) [Compound 365] | < 1 nM | < 1 nM
CN1C[C@H](Nc2cnn(C)c(=O)c2Br)C[C@H](c2ccc(C(=O)N3CCC4(CC3)CCN(c3ccc(OC5CCC(=O)NC5=O)cn3)CC4)cc2)C1 (stereo partly shown) [Compound 366] | 1 to 30 nM | < 1 nM
CN1C[C@H](Nc2cnn(C)c(=O)c2Cl)C[C@H](c2ccc(C(=O)N3CCC4(CC3)CCN(c3ccc(OC5CCC(=O)NC5=O)cn3)CC4)cc2)C1 (stereo partly shown) [Compound 367] | > 30 nM | < 1 nM
CN1CC(Nc2cnn(C)c(=O)c2Cl)CC(c2ccc(CN3CCN(c4cccc(OC5CCC(=O)NC5=O)c4)CC3)cc2)C1 (stereo not shown) [Compound 368] | > 30 nM | 1 to 30 nM
CN1C[C@H](Nc2cnn(C)c(=O)c2Cl)C[C@H](c2ccc(CN3C4CC3CN(c3cccc(C5CCC(=O)NC5=O)c3)C4)cc2)C1 (stereo partly shown) [Compound 369] | > 30 nM | 1 to 30 nM
CN1C[C@H](Nc2cnn(C)c(=O)c2Cl)C[C@H](c2ccc(C(=O)N3CCC4(CC3)CCN(c3ccc(NC5CCC(=O)NC5=O)c(F)c3)CC4)cc2)C1 (stereo partly shown) [Compound 372] | 1 to 30 nM | < 1 nM
CN1C[C@H](Nc2cnn(C)c(=O)c2Br)C[C@H](c2ccc(C(=O)N3CCC4(CC3)CCN(c3ccc(NC5CCC(=O)NC5=O)c(F)c3)CC4)cc2)C1 (stereo partly shown) [Compound 373] | 1 to 30 nM | < 1 nM
CN1C[C@H](Nc2cnn(C)c(=O)c2Br)C[C@H](c2ccc(C(=O)N3CCC4(CC3)CCN(c3ccc5c(N6CCC(=O)NC6=O)nccc5c3)CC4)cc2)C1 [Compound 374] | > 30 nM | < 1 nM
CN1C[C@H](Nc2cnn(C)c(=O)c2Cl)C[C@H](c2ccc(C(=O)N3CCC4(CC3)CCN(c3ccc5c(N6CCC(=O)NC6=O)nccc5c3)CC4)cc2)C1 [Compound 376] | > 30 nM | > 30 nM
CN1C[C@H](Nc2cnn(C)c(=O)c2Br)C[C@H](c2ccc(C(=O)N3CCC(c4ccc5c(C6CCC(=O)NC6=O)nccc5c4)CC3)cc2)C1 (stereo partly shown) [Compound 377] | > 30 nM | < 1 nM
Cc1c(N[C@@H]2C[C@H](c3ccc(C(=O)N4CCC(c5ccc6c(C7CCC(=O)NC7=O)cncc6c5)CC4)cc3)CN(C)C2)cnn(C)c1=O (stereo partly shown) [Compound 378] | > 30 nM | 1 to 30 nM
CN1C[C@H](Nc2cnn(C)c(=O)c2Cl)C[C@H](c2ccc(C(=O)N3CCC(c4ccc5c(C6CCC(=O)NC6=O)nccc5c4)CC3)cc2)C1 (stereo partly shown) [Compound 379] | > 30 nM | < 1 nM
